#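 Compound exposure: 48 hours, 5 concentrations, 96-well plates. TGI: concentration producing complete growth inhibition.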
# What was measured:
# Assay in all cases: NCI-60 cell line screen, 48 h
# [1] = tested on: 786-0 renal
# [2] = tested on: A498 renal
# [3] = tested on: A549 NSCLC
# [4] = tested on: ACHN renal
# [5] = tested on: CAKI-1 renal
# [6] = tested on: COLO 205 colon
# [7] = tested on: DU-145 prostate
# [8] = tested on: EKVX NSCLC
# [9] = tested on: HCC-2998 colon
# [10] = tested on: HCT-116 colon
# [11] = tested on: HCT-15 colon
# [12] = tested on: HL-60(TB) leukemia
# [13] = tested on: HOP-62 NSCLC
# [14] = tested on: HOP-92 NSCLC
# [15] = tested on: HT29 colon
# [16] = tested on: IGROV1 ovarian
# [17] = tested on: K-562 leukemia
# [18] = tested on: KM12 colon
# [19] = tested on: LOX IMVI melanoma
# [20] = tested on: M14 melanoma
# [21] = tested on: MALME-3M melanoma
# [22] = tested on: MCF7 breast
# [23] = tested on: MDA-MB-435
# [24] = tested on: MDA-N
# [25] = tested on: NCI-H23 lung
# [26] = tested on: NCI-H460 lung
# [27] = tested on: NCI-H522 lung
# [28] = tested on: NCI/ADR-RES ovarian
# [29] = tested on: OVCAR-3 ovarian
# [30] = tested on: OVCAR-4 ovarian
# [31] = tested on: OVCAR-5 ovarian
# [32] = tested on: OVCAR-8 ovarian
# [33] = tested on: PC-3 prostate
# [34] = tested on: RXF 393 renal
# [35] = tested on: SF-268 CNS
# [36] = tested on: SF-295 CNS
# [37] = tested on: SF-539 CNS
# [38] = tested on: SK-MEL-2 melanoma
# [39] = tested on: SK-MEL-28 melanoma
# [40] = tested on: SK-MEL-5 melanoma
# [41] = tested on: SK-OV-3 ovarian
# [42] = tested on: SN12C renal
# [43] = tested on: SNB-19 CNS
# [44] = tested on: SNB-75 CNS
# [45] = tested on: SR leukemia
# [46] = tested on: SW-620 colon
# [47] = tested on: T-47D breast
# [48] = tested on: TK-10 renal
# [49] = tested on: U251 CNS
# [50] = tested on: UACC-257 melanoma
# [51] = tested on: UACC-62 melanoma
# [52] = tested on: UO-31 renal
# [53] = tested on: BT-549 breast
# [54] = tested on: MDA-MB-231 breast
# [55] = tested on: MOLT-4 leukemia
# [56] = tested on: NCI-H226 lung
# [57] = tested on: RPMI-8226 leukemia
# [58] = tested on: CCRF-CEM leukemia
smiles,measurement,setting,value
OC1(c2ccccc2)CCCCCCCCC(O)(c2ccccc2)CCCCCCCC1 (stereo not given),TGI,[1],> 100 µM
same,TGI,[2],> 100 µM
same,TGI,[3],> 100 µM
same,TGI,[4],> 100 µM
same,TGI,[5],> 100 µM
same,TGI,[6],> 100 µM
same,TGI,[7],> 100 µM
same,TGI,[8],> 100 µM
same,TGI,[9],> 100 µM
same,TGI,[10],> 100 µM
same,TGI,[11],> 100 µM
same,TGI,[12],> 100 µM
same,TGI,[13],> 100 µM
same,TGI,[14],> 100 µM
same,TGI,[15],> 100 µM
same,TGI,[16],> 100 µM
same,TGI,[17],> 100 µM
same,TGI,[18],> 100 µM
same,TGI,[19],> 100 µM
same,TGI,[20],> 100 µM
same,TGI,[21],> 100 µM
same,TGI,[22],> 100 µM
same,TGI,[23],> 100 µM
same,TGI,[24],> 100 µM
same,TGI,[25],> 100 µM
same,TGI,[26],> 100 µM
same,TGI,[27],> 100 µM
same,TGI,[28],> 100 µM
same,TGI,[29],> 100 µM
same,TGI,[30],> 100 µM
same,TGI,[31],> 100 µM
same,TGI,[32],> 100 µM
same,TGI,[33],> 100 µM
same,TGI,[34],> 100 µM
same,TGI,[35],> 100 µM
same,TGI,[36],> 100 µM
same,TGI,[37],> 100 µM
same,TGI,[38],> 100 µM
same,TGI,[39],> 100 µM
same,TGI,[40],> 100 µM
same,TGI,[41],> 100 µM
same,TGI,[42],> 100 µM
same,TGI,[43],> 100 µM
same,TGI,[44],> 100 µM
same,TGI,[45],> 100 µM
same,TGI,[46],> 100 µM
same,TGI,[47],> 100 µM
same,TGI,[48],> 100 µM
same,TGI,[49],> 100 µM
same,TGI,[50],> 100 µM
same,TGI,[51],> 100 µM
same,TGI,[52],> 100 µM
NN/C(=N\S(=O)(=O)c1ccc(-c2ccccn2)s1)Nc1ccc(Cl)cc1,TGI,[1],> 100 µM
same,TGI,[2],> 100 µM
same,TGI,[3],> 100 µM
same,TGI,[4],> 100 µM
same,TGI,[53],> 100 µM
same,TGI,[5],> 100 µM
same,TGI,[6],> 100 µM
same,TGI,[7],> 100 µM
same,TGI,[8],> 100 µM
same,TGI,[10],> 100 µM
same,TGI,[11],> 100 µM
same,TGI,[12],> 100 µM
same,TGI,[13],> 100 µM
same,TGI,[14],> 100 µM
same,TGI,[15],> 100 µM
same,TGI,[16],> 100 µM
same,TGI,[17],> 100 µM
same,TGI,[18],> 100 µM
same,TGI,[19],> 100 µM
same,TGI,[20],> 100 µM
same,TGI,[22],> 100 µM
same,TGI,[54],> 100 µM
same,TGI,[24],> 100 µM
same,TGI,[55],> 100 µM
same,TGI,[56],> 100 µM
same,TGI,[25],> 100 µM
same,TGI,[26],> 100 µM
same,TGI,[27],57.1 µM
same,TGI,[28],> 100 µM
same,TGI,[29],> 100 µM
same,TGI,[30],> 100 µM
same,TGI,[31],> 100 µM
same,TGI,[32],> 100 µM
same,TGI,[33],> 100 µM
same,TGI,[57],> 100 µM
same,TGI,[34],94 µM
same,TGI,[35],84.2 µM
same,TGI,[36],> 100 µM
same,TGI,[37],> 100 µM
same,TGI,[38],> 100 µM
same,TGI,[39],> 100 µM
same,TGI,[40],> 100 µM
same,TGI,[41],> 100 µM
same,TGI,[42],> 100 µM
same,TGI,[43],> 100 µM
same,TGI,[44],69.2 µM
same,TGI,[46],> 100 µM
same,TGI,[47],> 100 µM
same,TGI,[48],> 100 µM
same,TGI,[49],> 100 µM
same,TGI,[50],> 100 µM
same,TGI,[51],> 100 µM
same,TGI,[52],> 100 µM
O=c1c2ccccc2n2c(=S)[nH]nc2n1-c1ccccc1,TGI,[1],> 100 µM
same,TGI,[2],> 100 µM
same,TGI,[3],> 100 µM
same,TGI,[4],> 100 µM
same,TGI,[5],> 100 µM
same,TGI,[58],> 100 µM
same,TGI,[6],> 100 µM
same,TGI,[7],> 100 µM
same,TGI,[8],> 100 µM
same,TGI,[9],> 100 µM
same,TGI,[10],> 100 µM
same,TGI,[11],> 100 µM
same,TGI,[12],> 100 µM
same,TGI,[13],> 100 µM
same,TGI,[15],> 100 µM
same,TGI,[16],> 100 µM
same,TGI,[17],> 100 µM
same,TGI,[18],> 100 µM
same,TGI,[19],> 100 µM
same,TGI,[20],> 100 µM
same,TGI,[21],> 100 µM
same,TGI,[22],> 100 µM
same,TGI,[54],> 100 µM
same,TGI,[23],> 100 µM
same,TGI,[24],> 100 µM
same,TGI,[55],> 100 µM
same,TGI,[56],> 100 µM
same,TGI,[25],> 100 µM
same,TGI,[26],> 100 µM
same,TGI,[27],> 100 µM
same,TGI,[28],> 100 µM
same,TGI,[29],> 100 µM
same,TGI,[30],> 100 µM
same,TGI,[31],> 100 µM
same,TGI,[32],> 100 µM
same,TGI,[33],> 100 µM
same,TGI,[34],> 100 µM
same,TGI,[35],> 100 µM
same,TGI,[36],> 100 µM
same,TGI,[37],> 100 µM
same,TGI,[38],> 100 µM
same,TGI,[39],> 100 µM
same,TGI,[40],> 100 µM
same,TGI,[41],> 100 µM
same,TGI,[42],> 100 µM
same,TGI,[43],> 100 µM
same,TGI,[44],84 µM
same,TGI,[45],> 100 µM
same,TGI,[46],> 100 µM
same,TGI,[47],> 100 µM
same,TGI,[48],> 100 µM
same,TGI,[49],> 100 µM
same,TGI,[50],> 100 µM
same,TGI,[51],> 100 µM
same,TGI,[52],> 100 µM
